Test results taken from the NIST ThermoML archive (doi:10.1016/j.fluid.2017.09.014).

Assay: xn = mol fraction of the nth substance listed
Settings: Vibrating tube method

O=S=O [sulfur dioxide] + O=C=O
Settings	mass density [kg/m3]
283.32 K, 5506 kPa, Liquid, x2 = 0.9503	916.4
283.32 K, 6002 kPa, Liquid, x2 = 0.9503	920.8
283.32 K, 6507 kPa, Liquid, x2 = 0.9503	925.6
283.32 K, 7000 kPa, Liquid, x2 = 0.9503	929.5
283.32 K, 7506 kPa, Liquid, x2 = 0.9503	934.7
283.32 K, 8008 kPa, Liquid, x2 = 0.9503	938.7
283.32 K, 9510 kPa, Liquid, x2 = 0.9503	949.7
283.32 K, 9995 kPa, Liquid, x2 = 0.9503	953.3
283.32 K, 10507 kPa, Liquid, x2 = 0.9503	956.6
283.32 K, 11007 kPa, Liquid, x2 = 0.9503	959.9
283.32 K, 12009 kPa, Liquid, x2 = 0.9503	966.2
283.32 K, 12514 kPa, Liquid, x2 = 0.9503	969.7
283.32 K, 13000 kPa, Liquid, x2 = 0.9503	972.6
283.32 K, 13536 kPa, Liquid, x2 = 0.9503	975.3
283.32 K, 14496 kPa, Liquid, x2 = 0.9503	980.8
283.32 K, 15011 kPa, Liquid, x2 = 0.9503	984.1
283.32 K, 15505 kPa, Liquid, x2 = 0.9503	986.8
283.32 K, 16044 kPa, Liquid, x2 = 0.9503	989.5
283.32 K, 16561 kPa, Liquid, x2 = 0.9503	992.4
283.32 K, 17047 kPa, Liquid, x2 = 0.9503	994.7
283.32 K, 17551 kPa, Liquid, x2 = 0.9503	996.8
283.32 K, 18520 kPa, Liquid, x2 = 0.9503	1001.7
283.32 K, 19016 kPa, Liquid, x2 = 0.9503	1004.1
283.32 K, 19496 kPa, Liquid, x2 = 0.9503	1006.2
283.32 K, 20038 kPa, Liquid, x2 = 0.9503	1008.7
283.32 K, 20507 kPa, Liquid, x2 = 0.9503	1011
283.32 K, 21035 kPa, Liquid, x2 = 0.9503	1013.2
283.32 K, 21504 kPa, Liquid, x2 = 0.9503	1015.3
283.32 K, 22046 kPa, Liquid, x2 = 0.9503	1017.6
283.32 K, 22565 kPa, Liquid, x2 = 0.9503	1019.8
283.32 K, 23052 kPa, Liquid, x2 = 0.9503	1021.8
283.32 K, 23509 kPa, Liquid, x2 = 0.9503	1023.3
283.32 K, 24535 kPa, Liquid, x2 = 0.9503	1027.4
283.32 K, 25025 kPa, Liquid, x2 = 0.9503	1029.4
283.32 K, 25509 kPa, Liquid, x2 = 0.9503	1031.3
283.32 K, 26038 kPa, Liquid, x2 = 0.9503	1033.5
283.32 K, 26503 kPa, Liquid, x2 = 0.9503	1034.9
283.32 K, 27023 kPa, Liquid, x2 = 0.9503	1037
283.32 K, 28043 kPa, Liquid, x2 = 0.9503	1040.7
283.32 K, 28527 kPa, Liquid, x2 = 0.9503	1042.4
283.32 K, 29081 kPa, Liquid, x2 = 0.9503	1044.1
283.32 K, 29470 kPa, Liquid, x2 = 0.9503	1045.7
283.32 K, 30008 kPa, Liquid, x2 = 0.9503	1047.3
283.32 K, 30506 kPa, Liquid, x2 = 0.9503	1049.6
283.32 K, 31007 kPa, Liquid, x2 = 0.9503	1050.9
283.32 K, 31500 kPa, Liquid, x2 = 0.9503	1052.8
283.32 K, 32033 kPa, Liquid, x2 = 0.9503	1054.6
283.32 K, 32516 kPa, Liquid, x2 = 0.9503	1056.2
283.32 K, 33032 kPa, Liquid, x2 = 0.9503	1057.9
283.32 K, 33527 kPa, Liquid, x2 = 0.9503	1059.6
283.32 K, 33995 kPa, Liquid, x2 = 0.9503	1060.8
283.32 K, 34989 kPa, Liquid, x2 = 0.9503	1064.3
283.32 K, 37026 kPa, Liquid, x2 = 0.9503	1070.5
283.32 K, 38461 kPa, Liquid, x2 = 0.9503	1074.6
283.32 K, 39056 kPa, Liquid, x2 = 0.9503	1076.1
283.32 K, 39558 kPa, Liquid, x2 = 0.9503	1077.4
283.32 K, 40729 kPa, Liquid, x2 = 0.9503	1080.4
283.33 K, 4307 kPa, Liquid, x2 = 0.9503	902.3
283.33 K, 4499 kPa, Liquid, x2 = 0.9503	904.4
283.33 K, 8543 kPa, Liquid, x2 = 0.9503	942.8
283.33 K, 9019 kPa, Liquid, x2 = 0.9503	946.2
283.33 K, 11512 kPa, Liquid, x2 = 0.9503	963
283.33 K, 14003 kPa, Liquid, x2 = 0.9503	978.2
283.33 K, 18078 kPa, Liquid, x2 = 0.9503	999.5
283.33 K, 24074 kPa, Liquid, x2 = 0.9503	1025.3
283.33 K, 40145 kPa, Liquid, x2 = 0.9503	1078.8
283.33 K, 40601 kPa, Liquid, x2 = 0.9503	1080.3
283.33 K, 40700 kPa, Liquid, x2 = 0.9503	1080.6
297.4 K, 4803 kPa, Gas, x2 = 0.9478	134.4
297.41 K, 100 kPa, Gas, x2 = 0.9478	1.8
297.41 K, 200 kPa, Gas, x2 = 0.9478	3.6
297.41 K, 2012 kPa, Gas, x2 = 0.9478	42.1
297.41 K, 2215 kPa, Gas, x2 = 0.9478	47.2
297.42 K, 51 kPa, Gas, x2 = 0.9478	1
297.42 K, 397 kPa, Gas, x2 = 0.9478	7.5
297.42 K, 502 kPa, Gas, x2 = 0.9478	9.4
297.42 K, 1817 kPa, Gas, x2 = 0.9478	37.6
297.42 K, 2421 kPa, Gas, x2 = 0.9478	53
297.42 K, 2588 kPa, Gas, x2 = 0.9478	57
297.42 K, 2854 kPa, Gas, x2 = 0.9478	64.1
297.42 K, 3638 kPa, Gas, x2 = 0.9478	87.4
297.42 K, 3822 kPa, Gas, x2 = 0.9478	93.7
297.42 K, 3996 kPa, Gas, x2 = 0.9478	99.9
297.42 K, 4401 kPa, Gas, x2 = 0.9478	115.6
297.42 K, 4507 kPa, Gas, x2 = 0.9478	120.1
297.42 K, 4600 kPa, Gas, x2 = 0.9478	124.4
297.42 K, 4703 kPa, Gas, x2 = 0.9478	129.2
297.43 K, 3223 kPa, Gas, x2 = 0.9478	74.6
297.43 K, 3396 kPa, Gas, x2 = 0.9478	79.8
297.43 K, 4206 kPa, Gas, x2 = 0.9478	107.7
297.44 K, 3064 kPa, Gas, x2 = 0.9478	70.1
298.09 K, 26076 kPa, Liquid, x2 = 0.9478	980
298.09 K, 26503 kPa, Liquid, x2 = 0.9478	982.1
298.1 K, 7001 kPa, Liquid, x2 = 0.9478	819.7
298.1 K, 9007 kPa, Liquid, x2 = 0.9478	854
298.1 K, 21016 kPa, Liquid, x2 = 0.9478	954.5
298.1 K, 21994 kPa, Liquid, x2 = 0.9478	959.8
298.1 K, 22537 kPa, Liquid, x2 = 0.9478	962.6
298.1 K, 23522 kPa, Liquid, x2 = 0.9478	967.7
298.1 K, 24029 kPa, Liquid, x2 = 0.9478	970.2
298.1 K, 24505 kPa, Liquid, x2 = 0.9478	972.6
298.1 K, 25050 kPa, Liquid, x2 = 0.9478	975.1
298.1 K, 25593 kPa, Liquid, x2 = 0.9478	977.9
298.1 K, 27025 kPa, Liquid, x2 = 0.9478	984.3
298.1 K, 27508 kPa, Liquid, x2 = 0.9478	986.6
298.1 K, 27973 kPa, Liquid, x2 = 0.9478	988.6
298.1 K, 28400 kPa, Liquid, x2 = 0.9478	990.6
298.1 K, 32016 kPa, Liquid, x2 = 0.9478	1004.6
298.1 K, 32518 kPa, Liquid, x2 = 0.9478	1006.5
298.1 K, 33068 kPa, Liquid, x2 = 0.9478	1008.6
298.1 K, 33435 kPa, Liquid, x2 = 0.9478	1009.8
